Laboratory results published in patent US9085555B2, “Complement pathway modulators and uses thereof” (priority 2011, dated 2015).

Target: Factor D (Homo sapiens (Human), UniProt P00746)
Assay: biochemical
Assay type: biochemical
Details: read-out: IC50

Factor D, sequence (P00746 26-253): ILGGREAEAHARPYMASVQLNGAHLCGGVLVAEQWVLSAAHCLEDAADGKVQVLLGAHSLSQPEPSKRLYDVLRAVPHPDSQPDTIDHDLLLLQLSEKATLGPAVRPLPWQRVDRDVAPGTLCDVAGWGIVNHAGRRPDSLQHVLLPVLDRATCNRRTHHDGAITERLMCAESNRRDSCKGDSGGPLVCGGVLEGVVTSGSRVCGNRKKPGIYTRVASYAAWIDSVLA

With NC(=O)n1cc(NC(=O)N2[C@@H]3C[C@@H]3C[C@H]2C(=O)NCc2cccc(Cl)c2F)c2cc(OCCn3ccnc3)ccc21 [Example 389, 1R,3S,5R)-2-Aza-bicyclo[3.1.0]hexane-2,3-dicarboxylic acid 2-{[1-carbamoyl-5-(2-imidazol-1-yl-ethoxy)-1H-indol-3-yl]-amide}3-(3-chloro-2-fluoro-benzylamide] the IC50 was 30 nM.
CC(C)(C)OC(=O)COc1ccc2c(c1)c(NC(=O)N1[C@@H]3C[C@@H]3C[C@H]1C(=O)NCc1ccccc1F)cn2C(N)=O [Example 390, (1-Carbamoyl-3-{[(1R,3S,5R)-3-(2-fluoro-benzylcarbamoyl)-2-aza-bicyclo[3.1.0]hexane-2-carbonyl]-amino}-1H-indol-5-yloxy)-acetic acid tert-butyl ester] gave an IC50 of 38 nM.
Work on NC(=O)n1cc(NC(=O)N2[C@@H]3C[C@@H]3C[C@H]2C(=O)NCc2ccccc2F)c2cc(OCC(=O)O)ccc21 [Example 391, (1-Carbamoyl-3-{[(1R,3S,5R)-3-(2-fluoro-benzylcarbamoyl)-2-aza-bicyclo[3.1.0]hexane-2-carbonyl]-amino}-1H-indol-5-yloxy)-acetic acid] yielded an IC50 of 30 nM.
NC(=O)n1cc(NC(=O)N2C3CC3C[C@H]2C(=O)NCc2cccc(Cl)c2F)c2ccc(O)cc21 (stereo partly drawn) [Example 392, 1R,3S,5R)-2-Aza-bicyclo[3.1.0]hexane-2,3-dicarboxylic acid 2-[(1-carbamoyl-6-hydroxy-1H-indol-3-yl)-amide]3-(3-chloro-2-fluoro-benzylamide] was tested, and the IC50 was 7 nM.
NC(=O)n1cc(NC(=O)N2C[C@H](F)C[C@H]2C(=O)NCc2cccc(Cl)c2F)c2ccc(O)cc21 [Example 393, 2S,4R)-4-Fluoro-pyrrolidine-1,2-dicarboxylic acid 1-[(1-carbamoyl-6-hydroxy-1H-indol-3-yl)-amide]2-(3-chloro-2-fluoro-benzylamide] gave an IC50 of 7 nM.
COC(=O)COc1ccc2c(NC(=O)N3[C@@H]4C[C@@H]4C[C@H]3C(=O)NCc3cccc(Cl)c3F)cn(C(N)=O)c2c1 [Example 394, (1-Carbamoyl-3-{[(1R,3S,5R)-3-(3-chloro-2-fluoro-benzylcarbamoyl)-2-aza-bicyclo[3.1.0]hexane-2-carbonyl]-amino}-1H-indol-6-yloxy)-acetic acid methyl ester] gave an IC50 of 70 nM.
In the case of NC(=O)n1cc(NC(=O)N2C3CC3C[C@H]2C(=O)NCc2cccc(Cl)c2F)c2ccc(OCCO)cc21 (stereo partly drawn) [Example 395, 1R,3S,5R)-2-Aza-bicyclo[3.1.0]hexane-2,3-dicarboxylic acid 2-{[1-carbamoyl-6-(2-hydroxy-ethoxy)-1H-indol-3-yl]-amide}3-(3-chloro-2-fluoro-benzylamide], the IC50 is reported as 25 nM.
With NC(=O)n1cc(NC(=O)N2C[C@@H](N)C[C@H]2C(=O)Nc2cccc(OC(F)(F)F)c2)c2ccc(OCc3ccccc3)cc21 [Example 398, (2S,4S)-4-Amino-pyrrolidine-1,2-dicarboxylic acid 1-[(6-benzyloxy-1-carbamoyl-1H-indol-3-yl)-amide]2-[(3-trifluoromethoxy-phenyl)-amide]] the IC50 was 3050 nM.
NC(=O)n1cc(NC(=O)N2CCNC[C@H]2C(=O)NCc2cccc(Cl)c2)c2ccccc21 [Example 399, S)-piperazine-1,2-dicarboxylic acid 1-[(1-carbamoyl-1H-indol-3-yl)-amide]2-(3-chloro-benzylamide] showed an IC50 of 1600 nM.
NCc1ccc(-c2cccc(NC(=O)[C@@H]3CCCN3C(=O)Nc3cn(C(N)=O)c4ccccc34)c2)cc1 [Example 400, (S)-Pyrrolidine-1,2-dicarboxylic acid 2-[(4′-aminomethyl-biphenyl-3-yl)-amide]1-[(1-carbamoyl-1H-indol-3-yl)-amide]] showed an IC50 of 3950 nM.
In the case of NCc1ccc(-c2cccc(NC(=O)[C@@H]3CCCN3C(=O)Nc3cn(C(N)=O)c4ccccc34)c2)c(F)c1 [Example 401, (S)-Pyrrolidine-1,2-dicarboxylic acid 2-[(4′-aminomethyl-2′-fluoro-biphenyl-3-yl)-amide]1-[(1-carbamoyl-1H-indol-3-yl)-amide]], the IC50 is reported as 1050 nM.
NC[C@H]1CC[C@@H](C(=O)Nc2cccc(OC(F)(F)F)c2)N1C(=O)Nc1cn(C(N)=O)c2ccccc12 [Example 402, (2S,5R)-5-Aminomethyl-pyrrolidine-1,2-dicarboxylic acid 1-[(1-carbamoyl-1H-indol-3-yl)-amide]2-[(3-trifluoromethoxy-phenyl)-amide]] showed an IC50 of 300 nM.
NC[C@H]1C[C@@H](C(=O)Nc2cccc(OC(F)(F)F)c2)N(C(=O)Nc2cn(C(N)=O)c3ccccc23)C1 [Example 403, (2S,4R)-4-Aminomethyl-pyrrolidine-1,2-dicarboxylic acid 1-[(1-carbamoyl-1H-indol-3-yl)-amide]2-[(3-trifluoromethoxy-phenyl)-amide]] was tested, and the IC50 was 1000 nM.
Work on NC[C@@H]1C[C@@H](C(=O)Nc2cccc(OC(F)(F)F)c2)N(C(=O)Nc2cn(C(N)=O)c3ccccc23)C1 [Example 404, (2S,4S)-4-Aminomethyl-pyrrolidine-1,2-dicarboxylic acid 1-[(1-carbamoyl-1H-indol-3-yl)-amide]2-[(3-trifluoromethoxy-phenyl)-amide]] yielded an IC50 of 1000 nM.
In the case of NC[C@H]1C[C@@H](C(=O)NCc2cccc(Cl)c2F)N(C(=O)Nc2cn(C(N)=O)c3ccccc23)C1 [Example 405, 2S,4R)-4-Aminomethyl-pyrrolidine-1,2-dicarboxylic acid 1-[(1-carbamoyl-1H-indol-3-yl)-amide]2-(3-chloro-2-fluoro-benzylamide], the IC50 is reported as 295 nM.
CN(C)C[C@H]1C[C@@H](C(=O)NCc2cccc(Cl)c2F)N(C(=O)Nc2cn(C(N)=O)c3ccccc23)C1 [Example 406, 2S,4R)-4-Dimethylaminomethyl-pyrrolidine-1,2-dicarboxylic acid 1-[(1-carbamoyl-1H-indol-3-yl)-amide]2-(3-chloro-2-fluoro-benzylamide] gave an IC50 of 150 nM.
In the case of NC[C@@]1(O)C[C@@H](C(=O)NCc2cccc(Cl)c2F)N(C(=O)Nc2cn(C(N)=O)c3ccccc23)C1 [Example 407, 2S,4S)-4-Aminomethyl-4-hydroxy-pyrrolidine-1,2-dicarboxylic acid 1-[(1-carbamoyl-1H-indol-3-yl)-amide]2-(3-chloro-2-fluoro-benzylamide], the IC50 is reported as 1050 nM.
Compound NC[C@]1(F)C[C@@H](C(=O)NCc2cccc(Cl)c2F)N(C(=O)Nc2cn(C(N)=O)c3ccccc23)C1 [Example 408, 2S,4R)-4-Aminomethyl-4-fluoro-pyrrolidine-1,2-dicarboxylic acid 1-[(1-carbamoyl-1H-indol-3-yl)-amide]2-(3-chloro-2-fluoro-benzylamide] has an IC50 of 1400 nM.
NC[C@@]1(F)C[C@@H](C(=O)NCc2cccc(Cl)c2F)N(C(=O)Nc2cn(C(N)=O)c3ccccc23)C1 [Example 409, 2S,4S)-4-Aminomethyl-4-fluoro-pyrrolidine-1,2-dicarboxylic acid 1-[(1-carbamoyl-1H-indol-3-yl)-amide]2-(3-chloro-2-fluoro-benzylamide] gave an IC50 of 25 nM.
NC(=O)n1cc(NC(=O)N2C[C@@](F)(CNC=O)C[C@H]2C(=O)NCc2cccc(Cl)c2F)c2ccccc21 [Example 410, 2S,4S)-4-Fluoro-4-formylaminomethyl-pyrrolidine-1,2-dicarboxylic acid 1-[(1-carbamoyl-1H-indol-3-yl)-amide]2-(3-chloro-2-fluoro-benzylamide] showed an IC50 of 15 nM.
NC[C@@]1(F)C[C@@H](C(=O)NCc2c(F)ccc(Cl)c2F)N(C(=O)Nc2cn(C(N)=O)c3ccccc23)C1 [Example 411, (2S,4S)-4-aminomethyl-4-fluoro-pyrrolidine-1,2-dicarboxylic acid 1-[(1-carbamoyl-1H-indol-3-yl)-amide]2-(3-chloro-2,6-difluoro-benzylamide)] showed an IC50 of 26 nM.
For CC(=O)n1cc(NC(=O)N2C[C@@](F)(CN)C[C@H]2C(=O)NCc2cccc(Cl)c2F)c2ccccc21 [Example 412, 2S,4S)-4-Aminomethyl-4-fluoro-pyrrolidine-1,2-dicarboxylic acid 1-[(1-acetyl-1H-indol-3-yl)-amide]2-(3-chloro-2-fluoro-benzylamide], the IC50 was 14 nM.
NC[C@@]1(F)C[C@@H](C(=O)N[C@H](CF)c2cccc(Br)c2)N(C(=O)Nc2cn(C(N)=O)c3ccccc23)C1 [Example 413, (2S,4S)-4-Aminomethyl-4-fluoro-pyrrolidine-1,2-dicarboxylic acid 2-{[(S)-1-(3-bromo-phenyl)-2-fluoro-ethyl]-amide}1-[(1-carbamoyl-1H-indol-3-yl)-amide]] gave an IC50 of 101 nM.
NC[C@@]1(F)C[C@@H](C(=O)Nc2cccc(OC(F)(F)F)c2)N(C(=O)Nc2cn(C(N)=O)c3ccccc23)C1 [Example 414, (2S,4S)-4-Aminomethyl-4-fluoro-pyrrolidine-1,2-dicarboxylic acid 1-[(1-carbamoyl-1H-indol-3-yl)-amide]2-[(3-trifluoromethoxy-phenyl)-amide]] gave an IC50 of 311 nM.
Compound NC(=O)n1cc(NC(=O)N2C[C@H](N)[C@@H](O)[C@H]2C(=O)NCc2cccc(Cl)c2F)c2ccccc21 [Example 416, 2S,3R,4S)-4-Amino-3-hydroxy-pyrrolidine-1,2-dicarboxylic acid 1-[(1-carbamoyl-1H-indol-3-yl)-amide]2-(3-chloro-2-fluoro-benzylamide] has an IC50 of 315 nM.
Work on NC(=O)n1cc(NC(=O)N2CC[C@@H](N)[C@H]2C(=O)NCc2cccc(Cl)c2F)c2ccccc21 [Example 417, 2S,3R)-3-Amino-pyrrolidine-1,2-dicarboxylic acid 1-[(1-carbamoyl-1H-indol-3-yl)-amide]2-(3-chloro-2-fluoro-benzylamide] yielded an IC50 of 40 nM.
Work on NC(=O)n1cc(NC(=O)N2CC[C@@H](N)[C@H]2C(=O)N[C@@H](c2cccc(Cl)c2F)C(F)(F)F)c2ccccc21 [Example 419, (2S,3R)-3-Amino-pyrrolidine-1,2-dicarboxylic acid 1-[(1-carbamoyl-1H-indol-3-yl)-amide]2-{[(S)-1-(3-chloro-2-fluoro-phenyl)-2,2,2-trifluoro-ethyl]-amide}] yielded an IC50 of 476 nM.
Work on NC(=O)n1cc(NC(=O)N2CC[C@H](N)[C@H]2C(=O)NCc2cccc(Cl)c2F)c2ccccc21 [Example 420, 2S,3S)-3-Amino-pyrrolidine-1,2-dicarboxylic acid 1-[(1-carbamoyl-1H-indol-3-yl)-amide]2-(3-chloro-2-fluoro-benzylamide] yielded an IC50 of 1150 nM.
